“Also recorded” adds a separate entry of the source.
Key:
[1] = system: glomerular cells (TUNEL-positive nuclei); assay: Glomerular TUNEL apoptosis assay in kidney transplant biopsies; format: in vivo, human; settings: renal transplant recipients with lower eGFR, sirolimus-treated versus not treated
Procedure: (§1) The study was conducted on 80 renal transplant recipients followed at the Renal Transplant Department of Necker hospital.
Apoptosis was detected in 4-μm sections of paraffin-embedded kidneys by TUNEL assay using the In Situ Cell Death Detection kit (Roche) according to the manufacturer's protocol. The glomerular apoptotic index was calculated as the number of glomeruli with at least one TUNEL-positive nuclei for the total number of glomeruli. All the microscopic fields of a whole kidney section were quantified.

[2] = Urinary albumin excretion in renal transplant recipients; format: in vivo, human
Procedure: as §1
For human samples, urinary creatinine and albumin were determined using a Hitachi 917 analyzer (Roche Diagnostics), whereas plasma creatinine and sirolimus were evaluated using a Synchron Cx4 autoanalyser (Beckman Coulter) and high-performance liquid chromatography, respectively.

SMILES: CO[C@H]1C[C@@H]2CC[C@@H](C)[C@@](O)(O2)C(=O)C(=O)N2CCCC[C@H]2C(=O)O[C@H]([C@H](C)C[C@@H]2CC[C@@H](O)[C@H](OC)C2)CC(=O)[C@H](C)/C=C(\C)[C@@H](O)[C@@H](OC)C(=O)[C@H](C)C[C@H](C)/C=C/C=C/C=C/1C [sirolimus]
- glomerular apoptosis (TUNEL) [1]: marked increased of apoptosis; also recorded: increased glomerular apoptosis
- development of albuminuria / proteinuria upon sirolimus treatment ([2]; cohort of kidney transplant recipients at different stages of renal failure): only patients with severe nephron reduction developed albuminuria; also recorded: marked proteinuria
- urinary albumin excretion, serial follow-up ([2]; patient 1, on sirolimus administration): severe albuminuria
- urinary albumin excretion, serial follow-up ([2]; patient 2, after removal of sirolimus): reversed albuminuria

— patent US20150018383A1, “BIOMARKERS OF RENAL DISORDERS” (Institut National de la Sante et de la Recherche Medicale …, priority 2011, published 2015)
